From patent US20150368655A1, “TRANSFORMED EUGLENA AND PROCESS FOR PRODUCING SAME” (OSAKA PREFECTURE UNIVERSITY PUBLIC CORPORATION, priority 2012, published 2015)
Values after ≈ are worked out from the molar mass of the structure shown.

System: Euglena wild strain
Experiment: Growth inhibition / drug sensitivity of the Euglena wild strain in KH medium
Format: cell-based, Euglena gracilis
Procedure: Euglena gracilis Klebs Z strain (hereafter, “Euglena wild strain”), which has chloroplasts, was used.
Koren-Hutner medium (KH medium) was used as a heterotrophic medium (Table 1). 150 ml of the KH medium adjusted to a pH of 6.8 was placed in a 500 ml Sakaguchi flask and sterilized by autoclaving at 121° C. for 15 minutes. 1 ml of Euglena that reached the stationary phase by culturing for about 4 to 7 days (10 to 15×10^6 cells/ml) was inoculated into the medium, followed by culture with shaking at 27° C. under continuous light conditions for 24 hours. A plate medium was prepared by adding 1.0%(w/v) of agar powder.
The minimum inhibitory concentration of zeocin for the Euglena wild strain in a medium at a pH of 6.8 was examined. […] The growth inhibition was observed even when the number of cells at the start of culture was relatively large (2.0×10^6 cells/ml in a liquid medium, 2.0×10^6 cells/plate in a plate medium).
The influence of cefotaxime, which is used to remove Agrobacterium, on the growth of Euglena in transformation by the Agrobacterium method was examined. The results reveal that cefotaxime had no influence on the growth of the Euglena wild strain to at least 500 μg/ml (FIG. 8). Thus, a selective medium containing cefotaxime was used.

CN[C@@H]1[C@@H](O)[C@@H](O[C@@H]2[C@@H](O)[C@H](O[C@H]3O[C@H]([C@@H](C)O)[C@@H](O)[C@H](O)[C@H]3N)[C@@H](N)C[C@H]2N)OC[C@]1(C)O [G418]
Growth of the Euglena wild strain (as the concentrations increased (FIGS. 9 and 10)): inhibited the growth

CO/N=C(\C(=O)N[C@@H]1C(=O)N2C(C(=O)O)=C(COC(C)=O)CS[C@H]12)c1csc(N)n1 [cefotaxime]
Influence on the growth of the Euglena wild strain (to at least 500 μg/ml (FIG. 8)): no influence

Cc1c(N)nc([C@H](CC(N)=O)NC[C@H](N)C(N)=O)nc1C(=O)N[C@H](C(=O)N[C@H](C)[C@@H](O)[C@H](C)C(=O)N[C@H](C(=O)NCCC1=N[C@@H](c2nc(C(=O)NCCCCN=C(N)N)cs2)CS1)[C@@H](C)O)[C@@H](O[C@@H]1O[C@@H](CO)[C@@H](O)[C@H](O)[C@@H]1O[C@H]1O[C@H](CO)[C@@H](O)[C@H](OC(N)=O)[C@@H]1O)c1cnc[nH]1 [zeocin]
Minimum inhibitory concentration (growth completely inhibited) (liquid medium, pH of 6.8): 50 µg/mL (≈ 35 µM) | Growth of the Euglena wild strain (medium containing 100 μg/ml of zeocin, liquid medium (FIG. 5) or plate medium (FIG. 6)): almost completely inhibited | Minimum inhibitory concentration (growth nearly inhibited) (plate medium, pH of 6.8): 25 µg/mL (≈ 17.5 µM)
